Measured values taken from US7244718B2, “Water soluble prodrugs of hindered alcohols” (University of Kansas, priority 1998, dated 2007).

Assay: Stability of the isolated free acid on standing at room temperature
Type: physicochemical
Settings: isolated free acid (oil)
Experimental: To a solution of o-phosphonooxymethylpropofol dibenzyl ester (115 mg, 0.245 mmol) in methanol (10 mL) was added palladium on carbon (10%, 20 mg). This mixture was stirred under an atmosphere of hydrogen (1 atm) for 1.5 hour.
To a solution of O-phosphonooxymethyl-alpha-tocopherol dibenzyl ester (88 mg, 0.12 mmol) in tetrahydrofuran (10 mL) was added palladium on carbon (10%, 15 mg). The mixture was stirred under an atmosphere of hydrogen (1 atm) for 10 minutes (the reaction was complete after 5 minutes as judged by TLC). The catalyst was removed by filtration through Celite, the filtrate was evaporated at reduced pressure, and then dried in vacuo.

Compound | stability at room temperature
Cc1c(C)c2c(c(C)c1OCOP(=O)(O)O)CCC(C)(CCCC(C)CCCC(C)CCCC(C)C)O2 (stereo not drawn) [IIb, O-phosphonooxymethyl-alpha-tocopherol] | unstable at room temperature
CC(C)c1cccc(C(C)C)c1OCOP(=O)(O)O [Id, O-phosphonooxymethylpropofol] | unstable on standing at room temperature
